Data: the supplement of paper PMC10307832

Key:
Test in all cases: relative viability (nuclei count vs DMSO), 5 days (fraction); higher = more cells survive
[1] = compound: CC1=CC=C(C=C1)C(=O)CN2C3=C(CCCC3)SC2=N [Pifithrin_alpha] + C[C@]1(O)C[C@@H](c2nc(-c3ccc4ccc(-c5ccccc5)nc4c3)c3c(N)nccn32)C1 [Linsitinib] (partner 1 µM)
Method in brief: (§1)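 A single step with final 0.05% Triton X-100, 1% formaldehyde and 1 ug/ml Hoechst fixed the cells and stained nuclei 5 days after treatment. Lung cancer cell lines in 1536-well plates had been treated by pin tool the day after seeding with one drug alone or a fixed anchor-drug dose plus five library-drug doses (not always all listed) in √10 steps, and nuclei were counted on 4× images. Relative viability is the ratio of nuclei in treated wells to nuclei in vehicle wells, taken as the median of duplicate plates.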

Axitinib + Decitabine = compound: CNC(=O)c1ccccc1Sc1ccc2c(/C=C/c3ccccn3)n[nH]c2c1 [Axitinib] + Nc1ncn([C@H]2C[C@H](O)[C@@H](CO)O2)c(=O)n1 [Decitabine] (partner 2 µM)
Method in brief: as §1

Axitinib + Foretinib = compound: CNC(=O)c1ccccc1Sc1ccc2c(/C=C/c3ccccn3)n[nH]c2c1 [Axitinib] + COc1cc2c(Oc3ccc(NC(=O)C4(C(=O)Nc5ccc(F)cc5)CC4)cc3F)ccnc2cc1OCCCN1CCOCC1 [Foretinib] (partner 0.25 µM)
Method in brief: as §1

Bemcentinib + Alpelisib = compound: Nc1nc(Nc2ccc3c(c2)CC[C@@H](N2CCCC2)CC3)nn1-c1cc2c(nn1)-c1ccccc1CCC2 [Bemcentinib] + Cc1nc(NC(=O)N2CCC[C@H]2C(N)=O)sc1-c1ccnc(C(C)(C)C(F)(F)F)c1 [Alpelisib] (partner 2 µM)
Method in brief: as §1

Row | Cell Line | relative viability ([1]; first compound 1 µM) | relative viability ([1]; first compound 3.162 µM) | relative viability ([1]; first compound 10 µM) | relative viability ([1]; first compound 100 µM) | relative viability (Axitinib + Decitabine; first compound 0.005 µM) | relative viability (Axitinib + Decitabine; first compound 0.01581 µM) | relative viability (Axitinib + Decitabine; first compound 0.05 µM) | relative viability (Axitinib + Decitabine; first compound 0.1581 µM) | relative viability (Axitinib + Decitabine; first compound 0.5 µM) | relative viability (Axitinib + Foretinib; first compound 0.005 µM) | relative viability (Axitinib + Foretinib; first compound 0.01581 µM) | relative viability (Axitinib + Foretinib; first compound 0.05 µM) | relative viability (Axitinib + Foretinib; first compound 0.1581 µM) | relative viability (Axitinib + Foretinib; first compound 0.5 µM) | relative viability (Bemcentinib + Alpelisib; first compound 0.04 µM) | relative viability (Bemcentinib + Alpelisib; first compound 0.1265 µM) | relative viability (Bemcentinib + Alpelisib; first compound 0.4 µM) | relative viability (Bemcentinib + Alpelisib; first compound 1.265 µM) | relative viability (Bemcentinib + Alpelisib; first compound 4 µM) | relative viability ([1]; first compound 31.62 µM)
1 | LU99A | 0.539 | 0.64 | 0.619 | 0.529 | 0.719 | 0.987 | 0.761 | 0.905 | 0.857 | 0.901 | 0.851 | 0.818 | 0.894 | 0.936 | 0.453 | 0.584 | 0.591 | 0.542 | 0.569 | 
2 | LCLC-97TM1 |  | 0.207 | 0.206 | 0.225 | 0.193 | 0.275 | 0.266 | 0.247 | 0.234 | 0.847 | 0.977 | 0.926 | 0.896 | 0.918 | 0.313 | 0.226 |  | 0.289 | 0.265 | 
3 | A-427 | 1.07 | 1.06 | 1.1 | 1.11 | 0.58 | 0.602 | 0.553 | 0.57 | 0.589 | 1.12 | 1.15 | 1.12 | 0.94 | 1.26 |  | 1.05 | 1.18 | 1.04 | 1.15 | 0.924
4 | EMC-BAC-2 | 0.799 | 0.859 | 0.765 | 0.927 | 1.03 | 0.966 | 0.971 | 0.965 | 0.945 | 1.05 | 1.08 | 1.03 | 1.08 | 1.09 | 0.833 | 0.756 | 0.817 | 0.788 | 0.803 | 0.745
5 | NCI-H838 | 0.96 | 0.888 | 0.853 | 0.782 | 0.503 | 0.492 | 0.433 | 0.487 | 0.475 | 1.06 | 1.11 | 1.12 | 0.906 | 1.13 | 0.961 | 1.19 | 1.08 | 1.01 | 1.04 | 0.735
6 | COR-L 105 | 0.786 | 0.713 | 0.859 | 0.662 | 0.727 | 0.557 | 0.726 | 0.727 | 0.683 | 0.973 | 1.12 | 1.16 | 1.05 | 1.49 | 1.05 | 0.949 | 1.03 | 0.931 | 0.895 | 0.573
7 | NCI-H358 | 0.777 | 0.83 | 0.671 | 0.541 | 0.226 | 0.222 | 0.221 | 0.214 | 0.198 | 0.701 | 0.738 | 0.859 | 0.695 | 0.925 | 0.97 | 0.826 | 1.04 | 0.826 | 0.971 | 0.547
8 | SK-MES-1 | 1 | 1.01 | 0.93 | 0.921 | 0.324 | 0.361 | 0.364 | 0.348 | 0.449 | 0.976 | 0.977 | 1.02 | 0.925 | 0.951 | 0.914 | 0.973 | 0.998 | 1.08 | 1.08 | 0.737
9 | LCLC-103H | 0.915 | 0.954 | 1.09 | 1.18 | 0.738 | 0.719 | 0.738 | 0.801 | 0.797 | 0.747 | 0.867 | 0.787 | 0.764 | 0.85 | 0.957 | 0.941 | 1.05 | 1.06 | 1.16 | 0.986
10 | HARA | 0.988 | 1.02 | 0.9 | 0.857 | 0.575 | 0.396 | 0.484 | 0.548 | 0.581 | 0.768 | 0.907 | 0.945 | 0.821 | 0.919 | 0.759 | 0.918 | 0.822 | 0.866 | 0.936 | 0.542
11 | ABC-1 | 0.9 | 0.651 | 0.621 | 0.506 | 1.35 |  | 0.866 | 0.964 | 1.01 | 1.02 | 1.04 | 1.17 | 0.916 | 1.29 | 1.22 | 1.07 | 1.08 | 0.997 | 1.07 | 0.593
12 | NCI-H727 | 0.295 | 0.312 | 0.271 | 0.217 | 0.962 | 0.842 | 0.835 | 1.01 | 0.837 | 1.23 | 0.837 | 0.896 | 0.982 | 1.15 | 0.528 | 0.576 | 0.492 | 0.491 | 0.621 | 0.293
13 | NCI-H2009 | 1.25 | 1.25 | 1.16 | 0.998 | 0.408 | 0.339 | 0.409 | 0.364 | 0.346 | 1.21 | 1.23 | 1.23 | 1.27 | 1.08 | 1.23 | 1.2 | 1.24 | 1.2 | 1.16 | 0.822
14 | NCI-H1944 | 1.18 | 1.23 | 1.11 | 1.04 | 0.47 | 0.428 | 0.452 | 0.397 | 0.455 | 0.892 | 0.881 | 0.978 | 0.882 | 1 | 0.825 | 0.821 | 0.898 | 0.871 | 0.846 | 
15 | SW 1573 | 0.82 | 0.713 | 0.698 | 0.758 | 0.546 | 0.544 | 0.579 | 0.445 | 0.617 | 0.743 | 0.915 | 1.26 | 0.811 | 0.989 | 0.716 | 0.803 | 0.909 | 0.886 | 0.88 | 0.768
16 | NCI-H1975 | 0.948 | 0.707 | 0.643 | 0.523 | 0.411 | 0.407 | 0.389 | 0.388 | 0.395 | 1.05 | 0.944 | 0.938 | 0.997 | 1.03 | 0.645 | 0.676 | 0.715 | 0.605 | 0.632 | 0.733
